These results are taken from a melting point compilation (Tetko et al.; mined from patent text by program, amines drawn as free bases though some values may be those of a salt).

As for `CC(C)C1(C)N=C(c2ncc(C3OCCCCO3)cc2C(=O)O)NC1=O` (configuration not stated), the melting point (in general, the temperature, or range, at which the solid turns liquid) was 60 to 69 °C. With `N=C(N)c1ccc(N2CCN(c3ccc(CCC(=O)O)cc3)S2(=O)=O)cc1` the figure was above 275 °C; with `CNC(=O)ON=Cc1nn(-c2c(Cl)cc(C(F)(F)F)cc2Cl)c(N)c1S(C)=O` (configuration not stated), 146 to 147 °C. To `CSC1C(=O)Nc2ccc(Oc3ccc(F)c(C(F)(F)F)c3Cl)cc21` (configuration not stated) belongs 137 to 142 °C; to `CC(C)(C(=O)O)C(O)c1ccnc(-c2nc(=O)c3ccccc3s2)c1` (configuration not stated), 235 to 236 °C; to `CC(C)(C)OC(=O)NC[C@H]1CN(c2ccc3c(c2)CCCc2cn[nH]c2-3)C(=O)O1`, 85 to 100 °C.

With `O=C(O)C=CC(=O)c1ccccc1[N+](=O)[O-]`, the melting point lay in the range of 153 to 158 °C. With `CCn1ccc2nc(N3CCN(c4ncc5cc(OC)c(OC)cc5n4)CC3)ncc2c1=O` the figure was 259 to 262 °C. `O=C(O)c1ccc(C(=O)Nc2cc3c4c(c2)CCCC4CCC3)cc1` had a melting point of 283 to 284 °C. In turn, `CN1c2ccccc2-c2nc3ccc(/C=C/C(N)=O)cc3c3cccc1c23` gave a melting point of 284 to 286 °C. With `Cc1ccc(S(=O)(=O)OCCC2Cc3ccccc3O2)cc1` (configuration not stated) the figure was 51 to 54 °C; with `CCCCc1c(C(=O)OCC)sc2ccc([N+](=O)[O-])cc12`, 92 to 93 °C; with `CNC1=C(C#N)C(c2ccc(Cl)c([N+](=O)[O-])c2)c2ccc3ccccc3c2O1` (configuration not stated), 278 to 279 °C. To `Cc1cc2c(c3c1NC(=O)CC3)OC(CN)C2` (configuration not stated) belongs above 300 °C. With `O=C(Nc1ccc(C(=O)N2Cc3ccc(C(=O)C(Cl)(Cl)Cl)n3Cc3ccccc32)cc1)c1ccccc1C(F)(F)F` the figure was 219 to 221 °C; with `Cc1ccc(N2CN(C(=O)c3ccccc3)C3=NN=CC3=C2N)cc1`, 297 to 300 °C; with `Cc1cccc(C)c1-n1cc(C#N)c(=O)n(SC(Cl)(Cl)Cl)c1=O`, 223 to 225 °C. `Cc1nc(N)c2nc(O)n(Cc3cc(-c4ccc(F)cc4)no3)c2c1C` yielded a melting point of 250 °C.

As to `CN1C(=O)C(=Cc2cc(C(C)(C)C)c(O)c(C(C)(C)C)c2)SC1=S`, the melting point was above 230 °C. With `CC(C)CCN1C(=O)C(NC(=O)Oc2cccc(N(C)C)c2)C(=O)N(c2ccccc2)c2cc(F)ccc21` (configuration not stated), the melting point fell in the range of 229 to 230 °C. With `CCCCCCCCNc1c(Nc2ccc(CC(C)NC[C@H](O)COc3cccc4[nH]c5ccccc5c34)cc2)c(=O)c1=O` (some centres not stated) the figure was 125 to 131 °C.

Compound `C[Si](C)(C)c1sccc1NC=O` returned a melting point of 74 to 76 °C. To `O=C(Nc1ccc2ccc(Cl)nc2n1)C1CC1` belongs 250 °C; to `CCOC(=O)c1ccc(C=O)cn1`, 59 °C. `CCc1cc(C(=O)c2ccccc2Cl)c(-n2c(C)nnc2CNC(=O)Nc2ccccc2)s1` came in with a melting point of 141 to 143 °C. To `COc1ccc(C=CC(O)C(O)C=Cc2ccc(OC)cc2)cc1` (configuration not stated) belongs 145 to 146 °C.

As to `O=C(O)Cc1ccccc1Sc1ccc(F)c(F)c1`, the melting point lay in the range of 54 to 57 °C.

`O=C(Nc1nc(-c2ccco2)c(C(=O)C2CCOCC2)s1)c1ccccc1OC(F)(F)F` came in with a melting point of 131 to 134 °C.

Regarding `N#CC(=Cc1cc(O)c(O)c([N+](=O)[O-])c1)C(=O)NCCCO`, the melting point was 223 to 228 °C. For `COC(=O)c1ccc(O)c(C2CCCC2)c1`, the melting point fell in the range of 114 to 116 °C.

`COc1ccc2[nH]c(/C=C/C(=O)OCc3ccccc3)cc2c1` showed a melting point of 155 to 157 °C.

On to `CN1CCC(=C2c3ccccc3C=Cc3ccc(C(=O)OCN4C(=O)CN(C)C4=O)cc32)CC1`, for which the melting point was in the range of 188 to 189 °C.

Consider `Cc1c(C=NO)c2ccccc2n1-c1ccc(OCc2ccccc2)c(F)c1`, for which the melting point was 167 to 168 °C. To `CC(C)CN=C1C(c2ccccc2)=C(c2ccccc2)C(c2ccccc2)=C1c1ccccc1` belongs 158 °C. To `COC(=O)COc1ccccc1C1C(C(=O)OC)=C(C)NC(C)=C1C(=O)OC` belongs 153 to 155 °C; to `Oc1ccc(Oc2ncc(C(F)(F)F)cc2F)cc1`, 97 °C; to `COc1cc(NC(N)=S)cc(OC)c1OC`, 203 to 205 °C. To `C=CCC(C(=O)OC)C1(C)CCCc2c1[nH]c1ccccc21` (configuration not stated) belongs 115 to 116 °C.

The compound `CN(Cc1sc2c(=O)c(C(=O)NCc3ccc(Cl)cc3)cn(C)c2c1CN)C[C@@H](O)c1ccccn1` displayed a melting point of 144 to 148 °C. Turning to `Cc1cc2c(cc1C)C(=CC#N)OC2=O`, the melting point lay in the range of 165 to 181 °C. With `Cc1[nH]nc(Oc2c(Cl)cc(C(F)(F)F)cc2Cl)c1C` the figure was 220 to 223 °C; with `COc1cc(C(=O)Nc2cccc3c2CN(C)CC3)cc(OC)c1OC`, 177 to 178 °C. With `Cc1cc(O)ccc1S(C)(=O)=O` the figure was 105 °C. Regarding `CC(C)(C)c1cc(-c2ccc(NC(=O)[C@H]3CCCC[C@H]3C(=O)O)cc2)cc(C(C)(C)C)c1O` (relative stereo), the melting point fell in the range of 217 to 220 °C. With `NC(=O)Cc1cccc2c(-c3ccccc3)onc12` the figure was 191 to 192 °C.

As to `CCOC(=O)C1=C(COCc2nnc(N)s2)NC(C)=C(C(=O)OC)C1c1cccc(Cl)c1Cl` (configuration not stated), the melting point turned out to be 194 °C.

In turn, `CC(C)(Oc1ccc(OC(CCC(F)(F)F)c2cccc3c2cnn3-c2ccc(C(F)(F)F)cc2)cc1)C(=O)O` (racemic) gave a melting point of 175 to 180 °C. With `COc1cc(OC)c2c(=O)[nH]c(-c3ccc(OCCNC(C)C)c(-c4ccccc4)n3)nc2c1` the figure was 179 to 180 °C; with `CC(C)c1nc2cc(COc3ccc(CC4SC(=O)NC4=O)cc3)ccc2o1` (configuration not stated), 128 to 131 °C. With `Cc1ccc(S(=O)(=O)Nc2nc(-c3cccc(C#N)c3)cs2)cc1` the figure was above 250 °C. As for `CC[C@H](C)[C@H](NC(=O)[C@@H]1CCCN1C(=O)OCc1ccccc1)C(=O)NCC(C)C`, the melting point lay within 87 to 88 °C. To `CC/C(=C(\c1ccc(/C=C/C(=O)O)cc1)c1ccc(OC(=O)COC)cc1)c1ccccc1` belongs 190 to 191 °C; to `N#Cc1ccc(C=Cc2ncn(CC(O)(Cn3cncn3)c3ccc(F)cc3F)n2)cc1` (configuration not stated), 189 to 191 °C; to `COc1nc(SC)nc(Cl)c1C(=O)O`, 179 to 181 °C.

On to `COc1cc2nc(N3CCN(c4ccnc(N(C)C5CCCC5)n4)CC3)nc(N)c2cc1OC`, for which the melting point fell in the range of 333 to 334 °C. Compound `Cc1nsc(CCCOc2c(C)cc(-c3noc(C)n3)cc2C)n1` registered a melting point of 67 to 71 °C. Turning to `CCC(CNC(=O)OC(C)(C)C)n1cnc2c(N)nc3ccccc3c21` (configuration not stated), the melting point was in the range of 171 to 173 °C.

For the compound `CCc1cc(Oc2ccc(S(C)(=O)=O)nc2)cc2cc(C3=NCC(CC(N)=O)S3)[nH]c12` (configuration not stated), the melting point is 190 to 191 °C. In turn, `O=C1OCC(c2ccc([N+](=O)[O-])cc2)C1CSCc1ccccc1` (configuration not stated) displayed a melting point of 90 to 91 °C. To `CCC1(C)C(=O)c2c(cc(O)c(Cl)c2Cl)C1c1ccccc1` (configuration not stated) belongs 248 °C; to `COc1ccc([N+](=O)[O-])cc1OCCCCl`, 85 to 87 °C; to `N#Cc1cc(Oc2ccc(Cl)cc2)ccc1[N+](=O)[O-]`, 120 to 122 °C. With `CC(=O)NC1CCc2c(C(=O)O)[nH]c(C(=O)O)c2C1` (configuration not stated) the figure was 233 to 235 °C; with `O=CC1=CC2=C(OC1)c1ccccc1S(=O)(=O)N2`, 108 to 110 °C; with `Cn1nc2cccc(OCCF)c2c1S(N)(=O)=O`, 178 to 180 °C. To `COc1ccc(C2(C#N)CCC(=O)CC2)c2c1oc1ccccc12` belongs 199 to 202 °C. Take `Cc1cc(F)c([N+](=O)[O-])cc1N`: the melting point came to 178 °C. To `CCOC(=O)Nc1ccc(OC)nc1` belongs 76 °C; to `CCOC(=O)C(Cc1ccc(OCCN2CCC(C)(C)c3cc(C(=O)c4ccccc4)ccc32)cc1)OCC(F)(F)F` (configuration not stated), 56 to 58 °C. To `N#CCCNC(=O)c1cccc(-c2cccc3cc(Cc4cccc(C(F)(F)F)c4)sc23)c1` belongs 95 to 98 °C; to `CC(=O)NC[C@H]1CC(c2ccc(-c3ccncc3)cc2)=NO1`, 244 to 245 °C; to `CN1C(=O)C(C(=O)Nc2ccc(F)cc2)S(=O)(=O)c2cc(Cl)ccc21` (configuration not stated), 205 °C. To `COc1ccnc(CCc2nc3cc(-c4ccc(NC(C)=O)cc4)cnc3[nH]2)c1` belongs 220 to 221 °C.

Consider `O=C(OCCO)c1ccc([N+](=O)[O-])cc1`, for which the melting point is 77 to 78 °C. With `CN(c1ccccc1[N+](=O)[O-])S(C)(=O)=O` the figure was 144 to 145 °C; with `CSc1ccc(NC(C#N)c2ccc(C)cc2)cc1` (configuration not stated), 186 to 187 °C; with `COc1ccc(CN(CCN(C)CCCCNC(=NCCCOc2cccc(CN3CCCCC3)c2)NC#N)c2ccccn2)cc1`, 106 to 108 °C.

As for `CN(Cc1cccs1)C(=O)C1CC2C=CC1C2` (configuration not stated), the melting point lay in the range of 74 to 75 °C.

Turning to `Cn1nc(-c2ccccc2)c(N)c1-c1ccccc1`, the melting point was 80 to 81 °C. To `CCCCC(C(O)c1ccc(Cl)cc1)n1cncn1` (configuration not stated) belongs 93 to 94 °C. To `CC(C)(C)OC(=O)NCOc1ccccc1C(=O)OCC#N` belongs 144 to 146 °C; to `O=C(O)CCC(=NOCc1ccc(OCc2csc(-c3ccccc3)n2)cc1)c1ccccc1`, 104 to 105 °C. To `Cn1c(=O)cnn(-c2cc(O)c(Cl)cc2Cl)c1=O` belongs 199 to 201 °C; to `CNC(=O)N(C)C(=O)Nc1ccccc1`, 93 to 95 °C. In the case of `CC(=O)Oc1ccc(C2(c3ccc(OC(C)=O)cc3)C(Cl)(Cl)C23CCCCC3)cc1`, the melting point was in the range of 162 to 163 °C. To `CCc1cc(-c2nc(C)c(-c3ccnc(Nc4ccc(S(=O)(=O)NCCO)cc4)n3)s2)ccn1` belongs 233 to 234 °C; to `CN1C(=O)[C@H](NC(=O)/C=C/c2cccc(Br)c2)N=C(c2ccccc2)c2ccccc21`, 221 °C.
